From article PMC7897990, “TriTOX: A novel Trichomonas vaginalis assay platform for high-throughput screening of compound libraries” (International Journal for Parasitology: Drugs and Drug …, 2021) come the findings set out here.

Series [1] relates to nontumorigenic neonatal foreskin fibroblast (NFF) cell line.
Series [2] concerns Trichomonas vaginalis G3 trophozoites. As to the kind of experiment: microbe, parasite or virus in culture. The following applies: 48 h.
[3] abbreviates: NFF fibroblasts, single concentration 5 µg/mL.
Setting [4] is: read-out: T.vaginalis_%inb_Rep1.
[5] abbreviates: read-out: T.vaginalis_%inb_Rep2.
The mark [6] stands for this setting: NFF fibroblast screen at 5 µg/mL, A = active, I = inactive.

SMILES strings stand for the structures. Like-named read-outs stand apart in the source and are kept apart here.

As to `O=C(O)c1c(-c2ccc[nH]2)[nH]c2ccccc2c1=O` [Penicinoline], in series [1] (setting [3]), the NFF_Activity entry is “I (otherwise these were reported as inactive (I))”. The results for the inhibition of growth at 1 µg/mL in series [2] (setting [4]) and in series [2] (setting [5]) were 13.9% and 11%, respectively.

Turning to `C=C(NC(=O)C(=C)NC(=O)c1csc(C2=N[C@@H]3c4csc(n4)[C@H]4NC(=O)c5csc(n5)[C@H]([C@](C)(O)[C@@H](C)O)NC(=O)[C@H]5CSC(=N5)/C(=C/C)NC(=O)[C@H]([C@@H](C)O)NC(=O)c5csc(n5)[C@]3(CC2)NC(=O)[C@H](C)NC(=O)C(=C)NC(=O)[C@H](C)NC(=O)[C@H]([C@@H](C)CC)N[C@@H]2C=Cc3c([C@H](C)O)cc(nc3[C@H]2O)C(=O)O[C@@H]4C)n1)C(N)=O` [Thiostrepton], the NFF_Activity entry in series [1] (setting [6]) was “I (otherwise these were reported as inactive (I))”. Moreover, the inhibition of growth at 1 µg/mL in series [2] (setting [4]) stood at 9.91%; in series [2] (setting [5]), 14.3%.

With `CN1C(=O)[C@]23C[C@@H]4C(C)(C)[C@@]5(C[C@@]41CN2CC[C@@]3(C)O)C(=O)Nc1c5ccc2c1OC=CC(C)(C)O2` [Paraherquamide A], in series [1] (setting [3]), the NFF_Activity result was “I (otherwise these were reported as inactive (I))”. Also, the figures for the inhibition of growth at 1 µg/mL in series [2] (setting [4]) and in series [2] (setting [5]) were 15.8% and 15.5%, respectively.

Take `CCCCCC1=C/C(=C/c2[nH]c(-c3ccc[nH]3)cc2OC)N=C1C` [Prodigiosin]: in series [1] (setting [3]), the NFF_Activity result is “I (otherwise these were reported as inactive (I))”. Moreover, the inhibition of growth at 1 µg/mL in series [2] (setting [4]) turned out to be 9.63%; in series [2] (setting [5]), 1.73%.

Take `C=C[C@]1(C)C[C@@H](OC(=O)CO)[C@]2(C)[C@H](C)CC[C@]3(CCC(=O)[C@H]32)[C@@H](C)[C@@H]1O` [Pleuromutilin]: the NFF_Activity entry in series [1] (setting [3]) was “I (otherwise these were reported as inactive (I))”. Besides, the values for the inhibition of growth at 1 µg/mL in series [2] (setting [4]) and in series [2] (setting [5]) were 10.1% and 11.7%, respectively.

Consider `Cn1c2ccccc2c(=O)c2c(O)cc3c(c21)C=CC(C)(C)O3` [Noracronycine], for which the NFF_Activity result in series [1] (setting [3]) is “I (otherwise these were reported as inactive (I))”. The inhibition of growth at 1 µg/mL in series [2] (setting [4]) is 8.76%; in series [2] (setting [5]) it was 12.6%.

Consider `C[C@@H]1C[C@H]2CC[C@H](O2)[C@H](C)C(=O)O[C@@H](C)C[C@@H]2CC[C@@H](O2)[C@@H](C)C(=O)O[C@H](C)C[C@H]2CC[C@H](O2)[C@H](C)C(=O)O[C@@H](C)C[C@@H]2CC[C@@H](O2)[C@@H](C)C(=O)O1` [Nonactin], for which the NFF_Activity result in series [1] is “I (key: active (A) compounds having >25% inhibitory activity; otherwise these were reported as inactive (I))”. In addition, the inhibition of growth at 1 µg/mL in series [2] (setting [4]) is 11.6%; in series [2] (setting [5]), 12.1%.

For the compound `CC(C)=CCC[C@H](C)[C@H]1CC[C@]2(C)C[C@H]3[C@H](C(=O)C[C@@]3(C)O)/C(C=O)=C\C[C@@H]12` [Ophiobolin C], the NFF_Activity result in series [1] (setting [3]) is “A (active (A) compounds having >25% inhibitory activity)”. The inhibition of growth at 1 µg/mL was 13.1% in series [2] (setting [4]) and 12.7% in series [2] (setting [5]).

Regarding `CC[C@H]1CC2CN3CCc4c([nH]c5ccc(OC)cc45)[C@](C(=O)OC)(C2)[C@H]13` (stereo in doubt) [Voacangine], in series [1] (setting [6]), the NFF_Activity entry is “I (otherwise these were reported as inactive (I))”. The figures for the inhibition of growth at 1 µg/mL in series [2] (setting [4]) and in series [2] (setting [5]) were 9.91% and 13.7%, respectively.

Consider `CC(C)[C@@H]1NC(=O)[C@H](C)OC(=O)[C@@H](C(C)C)NC(=O)[C@@H](C(C)C)OC(=O)[C@H](C(C)C)NC(=O)[C@H](C)OC(=O)[C@@H](C(C)C)NC(=O)[C@@H](C(C)C)OC(=O)[C@H](C(C)C)NC(=O)[C@H](C)OC(=O)[C@@H](C(C)C)NC(=O)[C@@H](C(C)C)OC1=O` [Valinomycin], for which the NFF_Activity entry in series [1] (setting [6]) is “I (otherwise these were reported as inactive (I))”. Moreover, the inhibition of growth at 1 µg/mL was 9.18% in series [2] (setting [4]) and 12.2% in series [2] (setting [5]).

In the case of `C=C(C)[C@@H]1NC(=O)[C@@H](NC)[C@@H](O)c2cc(Cl)c(O)c(c2)O[C@](C)(CC)[C@@H](C(=O)N2CC=C[C@H]2C(=O)N/C(C(=O)N/C(=C/C(=O)O)C(=O)O)=C(\C)CC)NC1=O` [Phomopsin A], in series [1] (setting [3]), the NFF_Activity result was “I (otherwise these were reported as inactive (I))”. Further, the inhibition of growth at 1 µg/mL worked out at 11.7% in series [2] (setting [4]) and 11% in series [2] (setting [5]).

For the compound `C[C@@H]1Cc2c(Cl)cc(C(=O)N[C@@H](Cc3ccccc3)C(=O)O)c(O)c2C(=O)O1` [Ochratoxin A], the NFF_Activity result in series [1] (setting [3]) is “I (otherwise these were reported as inactive (I))”. For the same compound, the results for the inhibition of growth at 1 µg/mL in series [2] (setting [4]) and in series [2] (setting [5]) were 13% and 11.6%, respectively.

For `CC[C@@H]1C=CC=CC[C@H](C)[C@@H](O)[C@@H](C)C(=O)[C@H](C)[C@@H](O)[C@H](C)C(=O)[C@H](C)[C@@H](O)[C@H](C)C=CC(=O)O[C@H]2[C@@H](C)[C@@H](CC1)O[C@@]1(CC[C@@H](C)[C@@H](C[C@H](C)O)O1)[C@@H]2C` [Oligomycin C], in series [1] (setting [3]), the NFF_Activity entry was “I (otherwise these were reported as inactive (I))”. The inhibition of growth at 1 µg/mL in series [2] (setting [4]) was 11.3%; in series [2] (setting [5]), 12.9%.

Take `CC1(C)CCC[C@]2(C)[C@@H](C=O)C(C=O)=CC[C@@H]12` [Polygodial]: in series [1] (setting [3]), the NFF_Activity result was “A (active (A) compounds having >25% inhibitory activity)”. The values for the inhibition of growth at 1 µg/mL in series [2] (setting [4]) and in series [2] (setting [5]) were 13.1% and 13.9%, respectively.

In the case of `CC1(C)C[C@]23[C@@H]4COC(=O)[C@H]2CC[C@H]1[C@@H]3CC4=O` [Quadrone], the NFF_Activity result in series [1] (setting [3]) was “A (active (A) compounds having >25% inhibitory activity)”. Besides, the inhibition of growth at 1 µg/mL in series [2] (setting [4]) and in series [2] (setting [5]) was 11.6% each time.

For `COC(=O)/C(=C1/OC(=O)C(c2ccccc2)=C1O)c1ccccc1` [Vulpinic acid], the NFF_Activity entry in series [1] (setting [6]) was “I (otherwise these were reported as inactive (I))”. Further, the inhibition of growth at 1 µg/mL in series [2] (setting [4]) was found to be 8.02%; in series [2] (setting [5]), 11.4%.

As to `CC[C@H]1C[C@@H]2CC[C@@H](O2)[C@@H](C)C(=O)O[C@H](C)C[C@H]2CC[C@H](O2)[C@H](C)C(=O)O[C@@H](C)C[C@@H]2CC[C@@H](O2)[C@@H](C)C(=O)O[C@H](C)C[C@H]2CC[C@H](O2)[C@H](C)C(=O)O1` [Monactin], the NFF_Activity result in series [1] (setting [3]) was “I (otherwise these were reported as inactive (I))”. In addition, the inhibition of growth at 1 µg/mL in series [2] (setting [4]) is 10%; in series [2] (setting [5]), 10.7%.

With `C=C(NC(=O)c1csc(-c2nc3c(cc2O)-c2nc(cs2)C(=O)NC(C(C)O)C(=O)N/C(=C\C)c2nc(cs2)C(=O)NC2CC(O)C(=O)OCc4cccc5[nH]c(c(C)c45)C(=O)SCC(NC(=O)c4csc2n4)c2nc-3cs2)n1)C(N)=O` (stereo not drawn) [Nosiheptide], the NFF_Activity entry in series [1] (setting [3]) was “I (otherwise these were reported as inactive (I))”. In addition, the inhibition of growth at 1 µg/mL came out at 2.89% in series [2] (setting [4]) and 6.03% in series [2] (setting [5]).

Consider `COC[C@H]1OC(=O)c2coc3c2[C@@]1(C)C1=C(C3=O)[C@@H]2CCC(=O)[C@@]2(C)C[C@H]1OC(C)=O` [Wortmannin], for which the NFF_Activity entry in series [1] (setting [6]) was “I (otherwise these were reported as inactive (I))”. Also, the inhibition of growth at 1 µg/mL in series [2] (setting [4]) was found to be 7.97%; in series [2] (setting [5]) it was 13.5%.

As to `C[C@H]1CCCC(=O)CCCCCc2cc(O)cc(O)c2C(=O)O1` [Zearalanone], the NFF_Activity result in series [1] (setting [6]) was “I (otherwise these were reported as inactive (I))”. The inhibition of growth at 1 µg/mL in series [2] (setting [4]) worked out at 10.1%; in series [2] (setting [5]) it was 14.6%.
